# Legend:
# Kir6.2 channel = molecular target: T1, Kir6.2 channel (Mus musculus, UniProt Q61743); assay: CaMKII activation in N2A cells overexpressing Kir6.2 channel (immunoblotting, anti-phosphorylated CaMKII antibody); type: cell-based; settings: 10 nM, one hour, Kir6.2 channel overexpressing N2A cells; control without compound = 100%
# T1 construct: expressed in transfected cells; host or cells: Neuro2A (N2A) cells, transient transfection with pcDNA3.1-Kir6.2 (gift of Dr. Toru Ishizuka, Tohoku University)
# T1 sequence (Q61743 1-390): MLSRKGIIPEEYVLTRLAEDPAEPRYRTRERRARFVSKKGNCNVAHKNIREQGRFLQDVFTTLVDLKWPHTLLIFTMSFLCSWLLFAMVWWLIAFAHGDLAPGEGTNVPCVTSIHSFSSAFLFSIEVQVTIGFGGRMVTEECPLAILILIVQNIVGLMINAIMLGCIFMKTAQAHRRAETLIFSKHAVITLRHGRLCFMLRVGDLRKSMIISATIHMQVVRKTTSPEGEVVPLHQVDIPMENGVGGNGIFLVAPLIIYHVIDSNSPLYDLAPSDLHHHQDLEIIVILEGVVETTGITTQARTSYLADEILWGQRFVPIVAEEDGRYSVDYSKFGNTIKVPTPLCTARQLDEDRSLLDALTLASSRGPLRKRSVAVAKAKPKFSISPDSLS
# Method: A plasmid vector having cDNA of Kir6.2 channel inserted therein: pcDNA3.1-Kir6.2, was obtained from Dr. Toru Ishizuka (Graduate School of Life Sciences, Tohoku University). The plasmid vector, pcDNA3.1-Kir6.2, was conditioned in accordance with the manual attached to GenElute HP Plasmid Maxiprep Kit (manufactured by Sigma-Aldrich). A culture solution (composition: DMEM culture solution 450 mL containing 50 ml of bovine serum and 100 units of penicillin/streptomycin) of Neuro2A cells (N2A cells, the National Instituted of Biomedical Innovation) cultured in DMEM culture solution (Gibco) was exchanged with Opti-Mem (Gibco)(containing Lipofectamine R2000 (1 μg/1 ml)) containing pcDNA3.1-Kir6.2 (1 μg/μl) conditioned above, and cultured for 5 hours to obtain N2A cells overexpressing Kir6.2 channel. Exchange with the DMEM culture solution was again performed and culture was carried out for two days. Thereafter, memantine (manufactured by Sigma-Aldrich) and the compound of the present invention (n=4 per group) were added in the culture solutions (DMEM, Gibco) so as to obtain a concentration of 10 nM based on the culture solution, and the culture solutions were allowed to stand still for one hour. Thereafter, Kir6.2 channel overexpressing N2A cells were collected and an SDS sample buffer was added to the N2A cells to prepare a suspension. The suspension was subjected to immunoblotting by use of an anti-phosphorylated CaMKII antibody (Fukunaga K et al., J. Biol. Chem. 1992, 267, 22527-22533) as a primary antibody and an anti-rabbit IgG antibody (manufactured by SouthernBiotech) as a secondary antibody (other conditions except the aforementioned antibodies were the same as those employed in ordinary immunoblotting), to investigate activation of CaMKII. As a result, in TP-009, TP-010, TP-011, TP-012, TP-014, TP-015, TP-048, TP-049, TP-050, TP-051, TP-052, TP-053, bands showing a reaction with the antibody against phosphorylated CaMKII were obtained. It was confirmed that activation of CaMKII is enhanced. In FIG. 1, the result of the case (control: c) where a test compound was not added is regarded as 100%. CaMKII activation of the cases containing memantine, TP-009, TP-010, TP-011, TP-012, TP-014, TP-015, TP-048, TP-049, TP-050, TP-051, TP-052, TP-053 (corresponding to M, 9, 10, 11, […], 15, 48, 49, 50, 51, 52 and 53, respectively) were shown in FIG. 1.
# APP23 mice = assay: Fear conditioning test in Alzheimer's disease model mice; type: in vivo; settings: APP23 mice treated for two months
# Source text: The fear conditioning test method is an analysis taking an advantage of mouse's preposition in favor of a dark place rather than a bright place. Day 1, a mouse is placed in a bright place. Since a mouse is fond of a dark place, the mouse enters a dark place (dark box). When an electrical stimulation is given to the mouse at this time, the mouse is surprised and returns to the bright place and never enters the dark place. Day 2, the mouse is placed in the bright place (the same place as on Day 1), and then, whether the mouse enters a dark place or not is observed for 5 minutes. If the mouse enters the dark place right away, it is determined that fear memory of the mouse declined. “Latency” is a time period (seconds) until the mouse placed in a bright place enters the dark plate (darkroom) on Day 2.
# Kir6.2 defective mice = assay: Immunoblotting of hippocampus for CaMKII activation in Kir6.2 defective mice; type: in vivo; settings: chronic treatment
# Method: Activation of CaMKII was investigated in the same manner as in FIGS. 4 to 7. In addition, GluA1 (Ser-831), which is known as a molecule activated by activation of CaMKII, was investigated. Hippocampal slices were suspended in an SDS sample buffer to prepare a suspension, which was subjected to immunoblotting. In this way, the intracellular mechanism of cognitive dysfunction in Kir6.2 defective mice was analyzed. The results are shown in FIG. 9 (FIG. 9a: band images by immunoblotting, FIG. 9b: quantification results of signal intensities of bands). In the hippocampus of Kir6.2 defective mice, activation of CaMKII was accelerated. Even in the case of chronic treatment with TP-014, no influence was observed.
smiles,measurement,setting,value
"O=C(N[C@@H](c1ccccc1)[C@H]1[C@H]2C[C@@H]3C[C@](Cl)(C2)C[C@@]1(OC(=O)C(F)(F)F)C3)C(F)(F)F [TP-014, (1S,2R,3S,5S,7S)-5-chloro-2-((R)-phenyl(2,2,2-trifluoroacetamido)methyl)adamantan-1-yl 2,2,2-trifluoroacetate]",activation of CaMKII (phosphorylated CaMKII bands),Kir6.2 channel,enhanced
same,"fear memory (latency, fear conditioning test)",APP23 mice,improvement effect
same,activation of CaMKII in hippocampus of Kir6.2 defective mice,Kir6.2 defective mice,no influence

# Reference: patent US10487045B2, “Adamantane derivative and use thereof” (TOHOKU UNIVERSITY, priority 2016, dated 2019)
